According to ChEMBL document CHEMBL3407485, “Design, synthesis and pharmacological evaluation of novel N-(2-(1, 1-dimethyl-5, 7-dioxo-4, 6-diazaspiro[2.4]heptan-6-yl)ethyl) sulfonamide derivatives as potential anticonvulsant agents” (Eur J Med Chem, 2015):
Calls of active or inactive are those of the source. The calls are words filed in the database; no cut-off is given here.

Assays:
Mus musculus [1] = experiment: Neurotoxicity in Kunming mouse assessed as motor impairment at 300 mg/kg, ip after 4 hrs by standardized rotarod test; format: toxicity, organism-based; design: dose 300 mg/kg, route intraperitoneal; details: in vivo
Mus musculus [2] = experiment: Anticonvulsant activity in Kunming mouse assessed as protection against maximal electroshock-induced seizures measured as abolition of hind limb tonic extension spasm at 300 mg/kg, ip after 0.5 hrs; format: functional, organism-based; design: dose 300 mg/kg; details: Hindlimb
Mus musculus [3] = experiment: Anticonvulsant activity in Kunming mouse assessed as protection against maximal electroshock-induced seizures measured as abolition of hind limb tonic extension spasm at 300 mg/kg, ip after 4 hrs; format: functional, organism-based; design: dose 300 mg/kg; details: Hindlimb
Mus musculus [4] = experiment: Neurotoxicity in Kunming mouse assessed as motor impairment at 300 mg/kg, ip after 0.5 hrs by standardized rotarod test; format: toxicity, organism-based; design: dose 300 mg/kg, route intraperitoneal; details: in vivo
Mus musculus [5] = experiment: Anticonvulsant activity in Kunming mouse assessed as protection against subcutaneous pentylenetetrazole-induced seizures at 300 mg/kg, ip after 0.5 hrs; format: functional, organism-based; design: dose 300 mg/kg
Mus musculus [6] = experiment: Anticonvulsant activity in Kunming mouse assessed as protection against subcutaneous pentylenetetrazole-induced seizures at 300 mg/kg, ip after 4 hrs; format: functional, organism-based; design: dose 300 mg/kg
Mus musculus [7] = experiment: Anticonvulsant activity in Kunming mouse assessed as protection against maximal electroshock-induced seizures measured as abolition of hind limb tonic extension spasm at 100 mg/kg, ip after 0.5 hrs; format: functional, organism-based; design: dose 100 mg/kg; details: Hindlimb
Mus musculus [8] = experiment: Anticonvulsant activity in Kunming mouse assessed as protection against maximal electroshock-induced seizures measured as abolition of hind limb tonic extension spasm at 100 mg/kg, ip after 4 hrs; format: functional, organism-based; design: dose 100 mg/kg; details: Hindlimb
Mus musculus [9] = experiment: Neurotoxicity in Kunming mouse assessed as motor impairment at 100 mg/kg, ip after 0.5 hrs by standardized rotarod test; format: toxicity, organism-based; design: dose 100 mg/kg, route intraperitoneal; details: in vivo
[10] = Neurotoxicity in ip dosed Kunming mouse assessed as motor impairment after 4 hrs by standardized rotarod test; format: toxicity, organism-based; details: in vivo
Mus musculus [11] = experiment: Anticonvulsant activity in ip dosed Kunming mouse assessed as protection against maximal electroshock-induced seizures measured as abolition of hind limb tonic extension spasm after 0.5 hrs; format: functional; details: Hindlimb
Mus musculus [12] = experiment: Protective index, ratio of TD50 for neurotoxicity in ip dosed Kunming mouse to ED50 for protection against maximal electroshock-induced seizure in ip dosed Kunming mouse; format: functional
Mus musculus [13] = experiment: Anticonvulsant activity in Kunming mouse assessed as protection against maximal electroshock-induced seizures measured as abolition of hind limb tonic extension spasm at 30 mg/kg, ip after 0.5 hrs; format: functional, organism-based; design: dose 30 mg/kg; details: Hindlimb
Mus musculus [14] = experiment: Anticonvulsant activity in Kunming mouse assessed as protection against maximal electroshock-induced seizures measured as abolition of hind limb tonic extension spasm at 30 mg/kg, ip after 4 hrs; format: functional, organism-based; design: dose 30 mg/kg; details: Hindlimb
Mus musculus [15] = experiment: Anticonvulsant activity in Kunming mouse assessed as protection against subcutaneous pentylenetetrazole-induced seizures at 100 mg/kg, ip after 0.5 hrs; format: functional, organism-based; design: dose 100 mg/kg
Mus musculus [16] = experiment: Neurotoxicity in Kunming mouse assessed as motor impairment at 100 mg/kg, ip after 4 hrs by standardized rotarod test; format: toxicity, organism-based; design: dose 100 mg/kg, route intraperitoneal; details: in vivo

SMILES: CC1(C)CC12NC(=O)N(CCNS(C)(=O)=O)C2=O (racemic)
- Activity (Mus musculus [1]): Non-toxic
- Activity (Mus musculus [2]): inactive
- Activity (Mus musculus [3]): inactive
- Activity (Mus musculus [4]): Non-toxic
- Activity (Mus musculus [5]): inactive
- Activity (Mus musculus [6]): inactive

SMILES: CCCCS(=O)(=O)NCCN1C(=O)NC2(CC2(C)C)C1=O (racemic)
- Activity (Mus musculus [1]): Non-toxic
- Activity (Mus musculus [7]): Active
- Activity (Mus musculus [8]): Active
- Activity (Mus musculus [4]): Non-toxic
- Activity (Mus musculus [5]): inactive
- Activity (Mus musculus [6]): inactive

SMILES: CN(C)S(=O)(=O)NCCN1C(=O)NC2(CC2(C)C)C1=O (racemic)
- Activity (Mus musculus [1]): Non-toxic
- Activity (Mus musculus [2]): inactive
- Activity (Mus musculus [3]): Active
- Activity (Mus musculus [4]): Non-toxic
- Activity (Mus musculus [5]): inactive
- Activity (Mus musculus [6]): inactive

SMILES: CC1(C)CC12NC(=O)N(CCNS(=O)(=O)c1cccs1)C2=O (racemic)
- Activity (Mus musculus [1]): Toxic
- Activity (Mus musculus [7]): Active
- Activity (Mus musculus [3]): Active
- Activity (Mus musculus [5]): inactive
- Activity (Mus musculus [6]): inactive
- Activity (Mus musculus [9]): Toxic

SMILES: Cc1ccc(S(=O)(=O)NCCN2C(=O)NC3(CC3(C)C)C2=O)cc1 (racemic)
- Activity (Mus musculus [1]): Non-toxic
- TD50 at 4 h [10]: 488 mg/kg
- ED50 (Mus musculus [11]): 40.6 mg/kg
- Ratio TD50/ED50 (Mus musculus [12]): 12
- Activity (Mus musculus [13]): Active
- Activity (Mus musculus [8]): Active
- Activity (Mus musculus [4]): Toxic
- Activity (Mus musculus [5]): Active
- Activity (Mus musculus [6]): inactive

SMILES: CC1(C)CC12NC(=O)N(CCNS(=O)(=O)c1ccc(F)cc1)C2=O (racemic)
- Activity (Mus musculus [1]): Non-toxic
- TD50 at 4 h [10]: 561 mg/kg
- ED50 (Mus musculus [11]): 28.1 mg/kg
- Ratio TD50/ED50 (Mus musculus [12]): 20
- Activity (Mus musculus [13]): Active
- Activity (Mus musculus [14]): Active
- Activity (Mus musculus [4]): Non-toxic
- Activity (Mus musculus [5]): Active
- Activity (Mus musculus [6]): inactive

SMILES: CC1(C)CC12NC(=O)N(CCNS(=O)(=O)c1ccc([N+](=O)[O-])cc1)C2=O (racemic)
- Activity (Mus musculus [1]): Non-toxic
- Activity (Mus musculus [2]): Active
- Activity (Mus musculus [3]): inactive
- Activity (Mus musculus [4]): Non-toxic
- Activity (Mus musculus [5]): inactive
- Activity (Mus musculus [6]): inactive

SMILES: CC1(C)CC12NC(=O)N(CCNS(=O)(=O)c1cccc([N+](=O)[O-])c1)C2=O (racemic)
- Activity (Mus musculus [1]): Non-toxic
- Activity (Mus musculus [7]): Active
- Activity (Mus musculus [3]): inactive
- Activity (Mus musculus [4]): Toxic
- Activity (Mus musculus [5]): inactive
- Activity (Mus musculus [6]): inactive

SMILES: CC(C)c1cc(C(C)C)c(S(=O)(=O)NCCN2C(=O)NC3(CC3(C)C)C2=O)c(C(C)C)c1 (racemic)
- Activity (Mus musculus [1]): Non-toxic
- Activity (Mus musculus [7]): Active
- Activity (Mus musculus [3]): Active
- Activity (Mus musculus [4]): Non-toxic
- Activity (Mus musculus [5]): inactive
- Activity (Mus musculus [6]): inactive

SMILES: CCOC(=O)C1(NC(=O)NCCNS(C)(=O)=O)CC1(C)C (racemic)
- Activity (Mus musculus [1]): Non-toxic
- Activity (Mus musculus [2]): inactive
- Activity (Mus musculus [3]): inactive
- Activity (Mus musculus [4]): Non-toxic
- Activity (Mus musculus [5]): inactive
- Activity (Mus musculus [6]): inactive

SMILES: CCCCS(=O)(=O)NCCNC(=O)NC1(C(=O)OCC)CC1(C)C (racemic)
- Activity (Mus musculus [1]): Non-toxic
- Activity (Mus musculus [7]): Active
- Activity (Mus musculus [3]): inactive
- Activity (Mus musculus [4]): Non-toxic
- Activity (Mus musculus [5]): inactive
- Activity (Mus musculus [6]): inactive

SMILES: CCOC(=O)C1(NC(=O)NCCNS(=O)(=O)N(C)C)CC1(C)C (racemic)
- Activity (Mus musculus [1]): Non-toxic
- Activity (Mus musculus [2]): inactive
- Activity (Mus musculus [3]): inactive
- Activity (Mus musculus [4]): Non-toxic
- Activity (Mus musculus [5]): inactive
- Activity (Mus musculus [6]): inactive

SMILES: CCOC(=O)C1(NC(=O)NCCNS(=O)(=O)c2cccs2)CC1(C)C (racemic)
- Activity (Mus musculus [1]): Non-toxic
- Activity (Mus musculus [2]): Active
- Activity (Mus musculus [3]): inactive
- Activity (Mus musculus [4]): Toxic
- Activity (Mus musculus [5]): inactive
- Activity (Mus musculus [6]): inactive

SMILES: CCOC(=O)C1(NC(=O)NCCNS(=O)(=O)c2ccc(C)cc2)CC1(C)C (racemic)
- Activity (Mus musculus [1]): Non-toxic
- Activity (Mus musculus [7]): Active
- Activity (Mus musculus [3]): Active
- Activity (Mus musculus [4]): Non-toxic
- Activity (Mus musculus [5]): inactive
- Activity (Mus musculus [6]): inactive

SMILES: CCOC(=O)C1(NC(=O)NCCNS(=O)(=O)c2ccc(F)cc2)CC1(C)C (racemic)
- Activity (Mus musculus [1]): Non-toxic
- Activity (Mus musculus [7]): Active
- Activity (Mus musculus [8]): Active
- Activity (Mus musculus [4]): Non-toxic
- Activity (Mus musculus [5]): inactive
- Activity (Mus musculus [6]): inactive

SMILES: CCOC(=O)C1(NC(=O)NCCNS(=O)(=O)c2ccc([N+](=O)[O-])cc2)CC1(C)C (racemic)
- Activity (Mus musculus [1]): Non-toxic
- Activity (Mus musculus [2]): inactive
- Activity (Mus musculus [3]): inactive
- Activity (Mus musculus [4]): Non-toxic
- Activity (Mus musculus [5]): inactive
- Activity (Mus musculus [6]): inactive

SMILES: CCOC(=O)C1(NC(=O)NCCNS(=O)(=O)c2cccc([N+](=O)[O-])c2)CC1(C)C (racemic)
- Activity (Mus musculus [1]): Non-toxic
- Activity (Mus musculus [2]): inactive
- Activity (Mus musculus [3]): inactive
- Activity (Mus musculus [4]): Non-toxic
- Activity (Mus musculus [5]): inactive
- Activity (Mus musculus [6]): inactive

SMILES: CCOC(=O)C1(NC(=O)NCCNS(=O)(=O)c2c(C(C)C)cc(C(C)C)cc2C(C)C)CC1(C)C (racemic)
- Activity (Mus musculus [1]): Non-toxic
- Activity (Mus musculus [2]): Active
- Activity (Mus musculus [3]): inactive
- Activity (Mus musculus [4]): Non-toxic
- Activity (Mus musculus [5]): inactive
- Activity (Mus musculus [6]): inactive

SMILES: CCC1(C)CC(=O)NC1=O (configuration not stated) [ETHOSUXIMIDE]
- Activity (Mus musculus [1]): Non-toxic
- Activity (Mus musculus [2]): inactive
- Activity (Mus musculus [3]): inactive
- Activity (Mus musculus [4]): Non-toxic
- Activity (Mus musculus [15]): Active
- Activity (Mus musculus [6]): Active

SMILES: O=C1NC(=O)C(c2ccccc2)(c2ccccc2)N1 [PHENYTOIN]
- Activity (Mus musculus [16]): Toxic
- ED50 (Mus musculus [11]): 9.2 mg/kg
- Activity (Mus musculus [13]): Active
- Activity (Mus musculus [14]): Active
- Activity (Mus musculus [5]): inactive
- Activity (Mus musculus [6]): inactive
- Activity (Mus musculus [9]): Toxic
